# Laboratory results: article PMC8222394 (Nature Communications, 2021)
# Where “and” joins values, the source holds several entries; their conditions need not be identical. Equal entries are not always repeated. Where two headings read alike, the source gives them in different places.
# Assays:
# [1] = system: TMPRSS2-HiBiT-BEAS-2B cells
# [2] = human, cited from earlier work
# SARS-CoV-2 pseudovirus [3] = assay: microbe, parasite or virus in culture; assay type: cell-based; settings: for IC50: Severe acute respiratory syndrome-related coronavirus, Caco-2, read-out: In vitro IC50 (viral entry)
# in vitro = settings: human
# SARS-CoV-2 pseudovirus [4] = assay type: cell-based
# [5] = design: method as in Selleck L1300 library file; settings: ref Selleck L1300 library file, cited from earlier work
# B-RafV600E = system: B-RafV600E; design: method as in selleckchem.com; settings: ref selleckchem.com, cited from earlier work
# TMPRSS2 = TMPRSS2 (Homo sapiens, UniProt O15393); assay: TMPRSS2 activity assay (Boc-Gln-Ala-Arg-MCA fluorescence); assay type: biochemical; design: purchased LSBio; settings: replicates
# Sequence of TMPRSS2 (O15393 106-492): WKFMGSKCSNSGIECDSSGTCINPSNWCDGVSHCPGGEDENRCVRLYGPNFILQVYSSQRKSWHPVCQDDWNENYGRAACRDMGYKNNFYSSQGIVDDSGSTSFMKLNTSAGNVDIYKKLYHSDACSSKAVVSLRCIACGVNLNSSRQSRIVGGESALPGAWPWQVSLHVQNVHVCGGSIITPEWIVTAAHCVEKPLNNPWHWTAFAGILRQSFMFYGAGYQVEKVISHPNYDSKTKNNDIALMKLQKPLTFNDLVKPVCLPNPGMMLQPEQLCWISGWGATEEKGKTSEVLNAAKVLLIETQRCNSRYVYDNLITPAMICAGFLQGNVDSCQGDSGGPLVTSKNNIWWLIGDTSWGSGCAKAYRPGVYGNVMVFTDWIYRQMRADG
# Experimental: Fluorescence (380-15 nm excitation/470-20 nm emission) of the samples was monitored over 4:45 h and the slope of the curves was calculated by linear regression analysis and used as output for TMPRSS2 activity.
compound,measurement,setting,value
Verteporfin [reference compound],CC50,[1],> 10 µM
CC1(C)CCC(CN2CCN(c3ccc(C(=O)NS(=O)(=O)c4ccc(NCC5CCOCC5)c([N+](=O)[O-])c4)c(Oc4cnc5[nH]ccc5c4)c3)CC2)=C(c2ccc(Cl)cc2)C1 [Venetoclax],Cmax,[2]; 400 mg Oral (QD),1270 nM
same,viral entry,SARS-CoV-2 pseudovirus [3],effective in reducing viral entry
same,IC50,SARS-CoV-2 pseudovirus [3],> 10 µM
same,CC50,in vitro,> 10 µM
same,signal relative to Vehicle (FigS7 source data),SARS-CoV-2 pseudovirus [4],0.618 and 0.6416 and 0.6544
Cc1coc2c1C(=O)C(=O)c1c-2ccc2c1CCCC2(C)C [Tanshinone IIA],ATP Glo,[1]; conc 0.01,1.137 and 1.427 and 1.128
"CCCS(=O)(=O)Nc1ccc(F)c(C(=O)c2c[nH]c3ncc(-c4ccc(Cl)cc4)cc23)c1F [Vemurafenib (PLX4032, RG7204), Vemurafenib]",DMSO (mM)Max Solubility,[5],197.99 mM
same,DMSO (mg/mL)Max Solubility,[5],97.00 mg/mL
same,water (mg/mL)Max Solubility,[5]; water,<1 mg/mL
same,IC50,B-RafV600E; cell-free assay,0.031 µM
same,selectivity for B-RafV600E over wild-type B-Raf,B-RafV600E; enzymatic assays,10 fold
Cc1nc(Nc2ncc(C(=O)Nc3c(C)cccc3Cl)s2)cc(N2CCN(CCO)CC2)n1 [Dasatinib],Cmax,[2]; 140 mg Oral (QD),307 nM
same,viral entry,SARS-CoV-2 pseudovirus [3],effective in reducing viral entry
same,IC50,SARS-CoV-2 pseudovirus [3],> 10 µM
same,CC50,in vitro,> 10 µM
same,signal relative to Vehicle (FigS7 source data),SARS-CoV-2 pseudovirus [4],0.6399 and 0.7584 and 0.6593
C[C@H]1O[C@H](O[C@H]2[C@H](O)[C@@H](O)[C@@H](O[C@H]3[C@H](O)[C@@H](O)C(O)O[C@@H]3CO)O[C@@H]2CO)[C@H](O)[C@@H](O)[C@@H]1N[C@H]1C=C(CO)[C@@H](O)[C@H](O)[C@H]1O (stereo partly drawn) [Acarbose],DMSO (mM)Max Solubility,[5],154.89 mM
same,DMSO (mg/mL)Max Solubility,[5],100.00 mg/mL
same,water (mM)Max Solubility,[5]; water,154.89 mM
same,water (mg/mL)Max Solubility,[5]; water,100.00 mg/mL
COC(=O)Nc1nc2cc(C(=O)c3ccc(F)cc3)ccc2[nH]1 [Flubendazole],ATP Glo,[1]; conc 3,0.991 and 1.045 and 1.023
CN(C)C(=O)COC(=O)Cc1ccc(OC(=O)c2ccc(NC(=N)N)cc2)cc1 [Camostat],TMPRSS2 activity (FigS9 source data),TMPRSS2; 0.08 µM,-0.0086 and -0.0028 and 0.0044 and -0.0059
same,TMPRSS2 activity (FigS9 source data),TMPRSS2; 0.4 µM,-0.037 and -0.0342 and -0.033 and -0.0254
same,TMPRSS2 activity (FigS9 source data),TMPRSS2; 2 µM,-0.0401 and -0.0361 and -0.044 and -0.0525
same,signal relative to Vehicle (FigS7 source data),SARS-CoV-2 pseudovirus [4],0.7432 and 0.6624 and 0.6548
"Cc1nc(C(=O)NCC(=O)O)c(O)c2ccc(Oc3ccccc3)cc12 [Roxadustat (FG-4592), Roxadustat]",DMSO (mM)Max Solubility,[5],198.67 mM
same,DMSO (mg/mL)Max Solubility,[5],70.00 mg/mL
same,water (mg/mL)Max Solubility,[5]; water,<1 mg/mL
CNC(=O)c1ccccc1Sc1ccc2c(/C=C/c3ccccn3)n[nH]c2c1 [Axitinib],DMSO (mM)Max Solubility,[5],90.56 mM
same,DMSO (mg/mL)Max Solubility,[5],35.00 mg/mL
same,water (mg/mL)Max Solubility,[5]; water,<1 mg/mL
COCCOC(=O)C1=C(C)NC(C)=C(C(=O)OC/C=C/c2ccccc2)C1c1cccc([N+](=O)[O-])c1 (stereo not drawn) [Cilnidipine],Cmax,[2]; 10 mg Oral (QD),18.1 nM
same,viral entry,SARS-CoV-2 pseudovirus [3],effective in reducing viral entry
same,IC50,SARS-CoV-2 pseudovirus [3],~3 µM
same,CC50,in vitro,> 10 µM
